This note sets out measurements from EP1566447A1, “Glimepiride- and insulin-induced glycosylphosphatidylinositol-specific phospholipase C regulation” (priority 2004, dated 2005).

Entries after “also recorded” stand apart in the source; their conditions may differ.

The subject of one assay is rat adipocytes. In words: isoproterenol-induced lipolysis (glycerol release). Format: cell-based. The protocol: Electroporation was performed as described in "Müller, G. et al., (2000) Mol. Cell. Biol. 20: 4708-4723". Lipolysis was determined as release of glycerol or fluorescent NBD-FA from prelabeled and isoproterenol-stimulated adipocytes as described in "Müller, G. et al., (2003) Biochimie 85: 1245-1256". Gce1 was detected by photolabeling of solubilized plasma membranes or hc/IcDIGs (10-50 µg protein) with 8-N3-[^32P]cAMP and subsequent phosphorimaging as described in "Müller, G. et al., (1994) Biochemistry 33: 12149-12159". 5'-Nuc, aP and AChE activities were measured according to "Eliakim, R. et al., (1990) Biochim. Biophys. Acta 1355: 293-302". Protein was determined using the BCA protein determination kit from Pierce (Rockford, IL) and BSA as calibration standard. SDS-PAGE was performed using precast gels (Novex, San Diego, CA; 10 % Bis-Tris resolving gel, morpholinopropanesulfonic acid-SDS running buffer). Lumiimages were evaluated on a Lumilmager using Lumilmager software (Roche Diagnostics). Phosphor- and fluorescence images were processed and quantified using the Storm 860 Phosphorlmager system (Molecular Dynamics, Gelsenkirchen, Germany). Figures were constructed using the Adobe Photoshop software (Adobe Systems, Mountain View, CA).
Fig. 8: Effect of GPI-2350 on the glimepiride/insulin-induced metabolic activity. Isolated rat adipocytes were treated (5 min, 37°C) without or with GPI-2350 (Panel A, 50 µM; Panel B, increasing conc.; Panel C, 5 µM, 50 µM) and then incubated (15 min, 37°C) in the absence or presence of insulin (Ins, 10 nM) or glimepiride (Gli, 20 µM or increasing conc.) as indicated. The adipocytes were then assayed for glucose transport and isoproterenol-induced lipolysis. The activity is given relative to the absence of GPI-2350 in the control reaction (Panels A, basal) or in the insulin- and glimepiride-stimulated state (Panels B and C, set at 100). Means ± SD of at least 5 independent cell incubations with activity measurements in triplicate each are given.

For a further assay, the system named is IRS-1 and pp59^Lyn. In words: tyrosine phosphorylation of pp59^Lyn and IRS-1. Format: cell-based, rat. The protocol: Polypeptides separated by SDS-PAGE were transferred to polyvinylidene difluoride membranes using the semidry procedure as described in "Müller, G. et al., (2001) Mol. Cell. Biol. 21: 4553-4567". Washed membranes were incubated anti-caveolin-1 (1:2000), anti-pp59^Lyn (1:1250), anti-aP (1:500), anti-5'-Nuc (1:750) and anti-IRS-1 (1:2000) antibodies for 4 h at 15°C. Washed membranes were incubated with horseradish peroxidase-coupled secondary goat anti-mouse (1:2000) or goat anti-rabbit IgG (1:4000) antibodies. Labeled proteins were visualized by enhanced chemiluminescence.
Fig. 7: Effect of GPI-2350 on the glimepiride/insulin-induced activation of signaling proteins. Isolated rat adipocytes were treated (5 min, 37°C) without or with GPI-2350 (Panels A, 50 µM; Panels B, increasing conc.) and then incubated (120 min, 37°C) in the absence or presence of insulin (10 nM) or glimepiride (20 µM). IRS-1 and pp59^Lyn were immunoprecipitated from the defatted postnuclear infranatant (see Materials and Methods) and solubilized combined hc/IcDIGs, respectively, and then immunoblotted for phosphotyrosine. […]

`CCCCCCCCCCCCP1(=O)O[C@@H]2[C@H](O)[C@@H](O)[C@H](O)[C@@H](O)[C@@H]2O1` (mixture of isomers) [GPI-2350, myo-inositol-1,2-cyclo-dodecylphosphonic acid]: the “effect on inhibition of lipolysis in response to glimepiride” value in the assay on rat adipocytes (50 µM) is “almost complete blockade; also recorded: lower than control values”. This compound also displayed an IC50 in the assay on rat adipocytes (Rattus norvegicus, Adipocyte) of 2 to 5 µM. Moreover, the inhibition at 50 µM in the assay on rat adipocytes (Rattus norvegicus, Adipocyte, 50 µM, insulin 10 nM, read-out: reduction of insulin inhibition of isoproterenol-induced lipolysis) was at most 33%. In the assay with IRS-1 and pp59^Lyn (50 µM), the “effect on tyrosine phosphorylation of pp59^Lyn and IRS-1 in response to glimepiride” value is on record as “almost complete blockade”. The “effect on metabolic insulin signaling (tyrosine phosphorylation of IRS-1 and inhibition of lipolysis)” value with IRS-1 and pp59^Lyn (insulin-stimulated) was “only marginally reduced”.
